Assay results published in patent US9227971B2, “Pyrazolo[1,5-a]pyrimidine compounds as mTOR inhibitors” (Merck Sharp & Dohme Corp., priority 2010, dated 2016).
Read-outs that look alike come from different tables or passages of the source.

Legend:
[1] = test system: phosphorylated AKT Ser473 (pAKT S473), mTORC2 activity, PC3 cells; assay: mTOR target engagement assay, immunofluorescent cell-based, pAKT S473 readout (mTORC2 activity); settings: Homo sapiens
In short: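 After blocking, cells were stained overnight at 4 °C with anti-pAKT S473 antibody, then a fluorescent secondary; inhibition was read as reduced fluorescence intensity.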

[2] = test system: phosphorylated 4E-BP1 Thr37/46 (p4E-BP1 Thr37/46), mTORC1 activity, PC3 cells; assay: mTOR target engagement assay, immunofluorescent cell-based, p4E-BP1 Thr37/46 readout (mTORC1 activity); settings: Homo sapiens, read-out: p4E-BP1 Thr37/46 IC50
In short: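 Seed PC3 cells overnight; treat with compound dilutions for ninety minutes at 37° C; fix with glyoxal and block; stain with anti-p4E-BP1 Thr37/46 overnight at 4° C, then fluorescent secondary; read fluorescence and fit IC50 against DMSO-only controls.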

[3] = PC-3, PC3 cells, compound treatment ninety minutes at 37° C.

| SMILES | IC50 ([1]; PC-3, Table 3-1, PC3 cells) | IC50 ([2]; PC-3, Table 3-1, PC3 cells) | also measured |
| --- | --- | --- | --- |
| COc1ccc(-c2ccc(-c3cnn4c(N)c(S(C)(=O)=O)c([C@@H]5C[C@H]6CC[C@@H](C5)N6C(=O)c5nnc[nH]5)nc34)cn2)cc1C#N [Compound 3.92, 5-(5-(5-((1R,3s,5S)-8-(4H-1,2,4-triazole-3-carbonyl)-8-azabicyclo[3.2.1]octan-3-yl)-7-amino-6-(methylsulfonyl)pyrazolo[1,5-a]pyrimidin-3-yl)pyridin-2-yl)-2-methoxybenzonitrile] | 0.1 to 1 µM | 0.1 to 1 µM | – |
| CC(=O)c1c([C@@H]2C[C@H]3CC[C@@H](C2)N3C(=O)c2nnc[nH]2)nc2c(-c3ccc([C@@H](O)C(F)(F)F)nc3)cnn2c1N [Compound 7.73, 1-(5-((1R,3s,5S)-8-(4H-1,2,4-triazole-3-carbonyl)-8-azabicyclo[3.2.1]octan-3-yl)-7-amino-3-(6-((R)-2,2,2-trifluoro-1-hydroxyethyl)pyridin-3-yl)pyrazolo[1,5-a]pyrimidin-6-yl)ethanone] | – | – | IC50 ([1]; PC-3, PC3 cells): 0.1 to 1 µM; IC50 ([2]; PC-3, PC3 cells): 0.1 to 1 µM |
| N#Cc1c([C@@H]2C[C@H]3CC[C@@H](C2)N3C(=O)CO)nc2c(-c3ccc(-c4ccccc4)nc3)cnn2c1N [Compound 5.1, 7-amino-5-((1R,3s,5S)-8-(2-hydroxyacetyl)-8-azabicyclo[3.2.1]octan-3-yl)-3-(6-phenylpyridin-3-yl)pyrazolo[1,5-a]pyrimidine-6-carbonitrile] | – | – | IC50 [1, 3]: 0.001 to 0.1 µM; IC50 [2, 3]: 0.1 to 1 µM |
| CS(=O)(=O)c1c([C@@H]2C[C@H]3CC[C@@H](C2)N3C(=O)c2nnc[nH]2)nc2c(-c3cn[nH]c3)cnn2c1N [Compound 3.113, ((1R,3s,5S)-3-(7-amino-6-(methylsulfonyl)-3-(1H-pyrazol-4-yl)pyrazolo[1,5-a]pyrimidin-5-yl)-8-azabicyclo[3.2.1]octan-8-yl)(4H-1,2,4-triazol-3-yl)methanone] | > 10 µM | 1 to 10 µM | – |
| CC(=O)c1c([C@@H]2C[C@H]3CC[C@@H](C2)N3C(=O)CO)nc2c(-c3ccc(-c4ncc(C)[nH]4)c(F)c3)cnn2c1N [Compound 6.38, 1-((1R,3s,5S)-3-(6-acetyl-7-amino-3-(3-fluoro-4-(5-methyl-1H-imidazol-2-yl)phenyl)pyrazolo[1,5-a]pyrimidin-5-yl)-8-azabicyclo[3.2.1]octan-8-yl)-2-hydroxyethanone] | – | – | IC50 ([1]; PC-3, Table 6-1, PC3 cells): 0.001 to 0.1 µM; IC50 ([2]; PC-3, Table 6-1, PC3 cells): 0.1 to 1 µM |
| CC(=O)c1c([C@H]2CC3CC[C@H](C2)N3C(=O)c2nnc[nH]2)nc2c(-c3ccc(C(O)C(F)(F)F)nc3)cnn2c1N (stereo partly drawn) [Compound 7.65, 1-(5-((1R,3s,5S)-8-(4H-1,2,4-triazole-3-carbonyl)-8-azabicyclo[3.2.1]octan-3-yl)-7-amino-3-(6-(2,2,2-trifluoro-1-hydroxyethyl)pyridin-3-yl)pyrazolo[1,5-a]pyrimidin-6-yl)ethanone] | – | – | IC50 ([1]; PC-3, PC3 cells): 0.1 to 1 µM; IC50 ([2]; PC-3, PC3 cells): 0.1 to 1 µM |
| CS(=O)(=O)c1c([C@@H]2C[C@H]3CC[C@@H](C2)N3C(=O)CO)nc2c(-c3ccc(C4(O)COC4)nc3)cnn2c1N [Compound 7.49, 1-((1R,3s,5S)-3-(7-amino-3-(6-(3-hydroxyoxetan-3-yl)pyridin-3-yl)-6-(methylsulfonyl)pyrazolo [1,5-a]pyrimidin-5-yl)-8-azabicyclo[3.2.1]octan-8-yl)-2-hydroxyethanone] | – | – | IC50 ([1]; PC-3, Table 7-8, PC3 cells): 1 to 10 µM; IC50 ([2]; PC-3, Table 7-8, PC3 cells): 1 to 10 µM |
| CC(=O)c1c([C@@H]2C[C@H]3CC[C@@H](C2)N3C(=O)CO)nc2c(-c3ccc(-c4ncc[nH]4)nc3)cnn2c1N [Compound 6.3, 1-((1R,3s,5S)-3-(3-(6-(1H-imidazol-2-yl)pyridin-3-yl)-6-acetyl-7-aminopyrazolo[1,5-a]pyrimidin-5-yl)-8-azabicyclo[3.2.1]octan-8-yl)-2-hydroxyethanone] | – | – | IC50 ([1]; PC-3, Table 6-1, PC3 cells): 0.001 to 0.1 µM; IC50 ([2]; PC-3, Table 6-1, PC3 cells): 0.001 to 0.1 µM |
| CS(=O)(=O)c1c([C@@H]2C[C@H]3CC[C@@H](C2)N3C(=O)c2cn[nH]c2O)nc2c(-c3ccc(-c4ccccc4)nc3)cnn2c1N [Compound 3.94, ((1R,3s,5S)-3-(7-amino-6-(methylsulfonyl)-3-(6-phenylpyridin-3-yl)pyrazolo[1,5-a]pyrimidin-5-yl)-8-azabicyclo[3.2.1]octan-8-yl)(5-hydroxy-1H-pyrazol-4-yl)methanone] | 0.1 to 1 µM | 0.1 to 1 µM | – |
| CS(=O)(=O)c1c([C@H]2CC3CC[C@H](C2)N3C(=O)c2cn[nH]n2)nc2c(-c3cnc4ccc(F)cc4c3)cnn2c1N [Compound 3.177, ((1R,3s,5S)-3-(7-amino-3-(6-fluoroquinolin-3-yl)-6-(methylsulfonyl)pyrazolo[1,5-a]pyrimidin-5-yl)-8-azabicyclo[3.2.1]octan-8-yl)(2H-1,2,3-triazol-4-yl)methanone] | 0.1 to 1 µM | 0.1 to 1 µM | – |
| Cc1n[nH]c(C(=O)N2[C@@H]3CC[C@H]2C[C@H](c2nc4c(-c5ccc(-c6ccccc6)nc5)cnn4c(N)c2S(C)(=O)=O)C3)n1 [Compound 3.4, ((1R,3s,5S)-3-(7-amino-6-(methylsulfonyl)-3-(6-phenylpyridin-3-yl)pyrazolo[1,5-a]pyrimidin-5-yl)-8-azabicyclo[3.2.1]octan-8-yl)(3-methyl-1H-1,2,4-triazol-5-yl)methanone] | 0.001 to 0.1 µM | 0.001 to 0.1 µM | – |
| Cc1nnc(C(=O)N2[C@@H]3CC[C@H]2C[C@H](c2nc4c(-c5ccc(-c6ncc(C)s6)nc5)cnn4c(N)c2S(C)(=O)=O)C3)[nH]1 [Compound 3.184, ((1R,3s,5S)-3-(7-amino-6-(methylsulfonyl)-3-(6-(5-methylthiazol-2-yl)pyridin-3-yl)pyrazolo[1,5-a]pyrimidin-5-yl)-8-azabicyclo[3.2.1]octan-8-yl)(5-methyl-4H-1,2,4-triazol-3-yl)methanone] | 0.001 to 0.1 µM | 0.001 to 0.1 µM | – |
| CC(=O)c1c([C@@H]2C[C@H]3CC[C@@H](C2)N3C(N)=O)nc2c(-c3ccc(-c4cnn(C)c4)nc3)cnn2c1N [Compound 1.1.175, (1R,3s,5S)-3-(6-acetyl-7-amino-3-(6-(1-methyl-1H-pyrazolo-4-yl)pyridin-3-yl)pyrazolo[1,5-a]pyrimidin-5-yl)-8-azabicyclo[3.2.1]octane-8-carboxamide] | – | – | IC50 [1, 3]: 0.001 to 0.1 µM; IC50 [2, 3]: 0.1 to 1 µM |
| CC(=O)c1c([C@@H]2C[C@H]3CC[C@@H](C2)N3C(=O)CO)nc2c(-c3ccc(-c4cc[nH]n4)nc3)cnn2c1N [Compound 1.1.75, 1-((1R,3s,5S)-3-(3-(6-(1H-pyrazol-3-yl)pyridin-3-yl)-6-acetyl-7-aminopyrazolo[1,5-a]pyrimidin-5-yl)-8-azabicyclo[3.2.1]octan-8-yl)-2-hydroxyethanone] | – | – | IC50 [1, 3]: 0.001 to 0.1 µM; IC50 [2, 3]: 0.001 to 0.1 µM |
| COc1ccc(-c2ncc(-c3cnn4c(N)c(S(C)(=O)=O)c([C@@H]5C[C@H]6CC[C@@H](C5)N6C(=O)CO)nc34)cn2)c(F)c1F [Compound 3.149, 1-((1R,3s,5S)-3-(7-amino-3-(2-(2,3-difluoro-4-methoxyphenyl)pyrimidin-5-yl)-6-(methylsulfonyl)pyrazolo[1,5-a]pyrimidin-5-yl)-8-azabicyclo[3.2.1]octan-8-yl)-2-hydroxyethanone] | 1 to 10 µM | 0.1 to 1 µM | – |
| CC(=O)N1[C@@H]2CC[C@H]1C[C@H](c1nc3c(-c4ccc(-c5csc(C)n5)nc4)cnn3c(N)c1S(C)(=O)=O)C2 [Compound 3.200, 1-((1R,3s,5S)-3-(7-amino-6-(methylsulfonyl)-3-(6-(2-methylthiazol-4-yl)pyridin-3-yl)pyrazolo[1,5-a]pyrimidin-5-yl)-8-azabicyclo[3.2.1]octan-8-yl)ethanone] | 1 to 10 µM | 1 to 10 µM | – |
| Cc1csc(-c2ccc(-c3cnn4c(N)c(S(C)(=O)=O)c([C@@H]5C[C@H]6CC[C@@H](C5)N6C(=O)c5cn[nH]n5)nc34)cn2)n1 [Compound 3.189, ((1R,3s,5S)-3-(7-amino-6-(methylsulfonyl)-3-(6-(4-methylthiazol-2-yl)pyridin-3-yl)pyrazolo[1,5-a]pyrimidin-5-yl)-8-azabicyclo[3.2.1]octan-8-yl)(2H-1,2,3-triazol-4-yl)methanone] | 1 to 10 µM | 1 to 10 µM | – |
| CC(=O)c1c([C@@H]2C[C@H]3CC[C@@H](C2)N3C(=O)C(C)(CO)CO)nc2c(-c3ccc(-c4ncc[nH]4)nc3)cnn2c1N [Compound 6.46, 1-((1R,3s,5S)-3-(3-(6-(1H-imidazol-2-yl)pyridin-3-yl)-6-acetyl-7-aminopyrazolo[1,5-a]pyrimidin-5-yl)-8-azabicyclo[3.2.1]octan-8-yl)-3-hydroxy-2-(hydroxymethyl)-2-methylpropan-1-one] | – | – | IC50 ([1]; PC-3, Table 6-1, PC3 cells): 0.1 to 1 µM; IC50 ([2]; PC-3, Table 6-1, PC3 cells): 0.1 to 1 µM |
| [2H]C([2H])([2H])Oc1ccc(-c2ccc(-c3ccn4c(N)c(S(C)(=O)=O)c([C@@H]5C[C@H]6CC[C@@H](C5)N6C(=O)c5nnc[nH]5)nc34)cn2)cc1 [Compound 3.62, ((1R,3s,5S)-3-(7-amino-3-(6-(4-methoxy-(D3)-phenyl)pyridin-3-yl)-6-(methylsulfonyl)pyrazolo[1,5-a]pyrimidin-5-yl)-8-azabicyclo[3.2.1]octan-8-yl)(4H-1,2,4-triazol-3-yl)methanone] | 0.001 to 0.1 µM | 0.001 to 0.1 µM | – |
| CCn1ccc(-c2ccc(-c3cnn4c(N)c(C(C)=O)c([C@@H]5C[C@H]6CC[C@@H](C5)N6C(=O)CO)nc34)cn2)n1 [Compound 1.1.137, 1-((1R,3s,5S)-3-(6-acetyl-7-amino-3-(6-(1-ethyl-1H-pyrazol-3-yl)pyridin-3-yl)pyrazolo[1,5-a]pyrimidin-5-yl)-8-azabicyclo[3.2.1]octan-8-yl)-2-hydroxyethanone] | – | – | IC50 [1, 3]: 0.001 to 0.1 µM; IC50 [2, 3]: 0.1 to 1 µM |
